We go through one molecule from patent publication US20050282873A1, “Epothilone derivative for the treatment of hepatoma and other cancer diseases” (priority 2002, published 2005).

The structures appear in SMILES notation.

Type in all cases: in vivo, human
Test [1] has as its system androgen-independent prostate cancer. The experiment in a line: Open-label, single-arm, two-stage multicenter efficacy study in androgen-independent prostate cancer. Conditions: i.v. 2.5 mg/m^2, 5 minute bolus infusion weekly for three weeks, one week off; chemo-naïve or failed one prior chemotherapy; trial ongoing. As for the experimental part: Open-label, single-arm, two-stage, multicenter study to investigate the efficacy of EPO906 administered intravenously at 2.5 mg/m^2 as a 5 minute bolus infusion once a week for three weeks followed by one week off in patients with androgen-independent prostate cancer who are chemo-naïve or who have failed one prior chemotherapy. 7,11-Dihydroxy-8,8,10,12,16-pentamethyl-3-[1-methyl-2-(2-methyl-thiazol-4-yl)-vinyl]-4,17-dioxa-bicyclo[14.1.0]heptadecane-5,9-dione is administered once every week for three weeks followed by a one-week drug holiday until either progression of disease or unacceptable toxicities occurs. Each four-week period is considered one cycle. Patients are evaluated for tumor response one week after their last dose of every other cycle, starting with Cycle 2. Patients may, at any time, have their dose reduced to 2.0 mg/m^2 if in the investigator's opinion the original dose is either intolerable or unsafe for any given patient, and without such a dose reduction the patient will be forced to withdraw from the study. All dose modifications are captured on the dose administration record CRF. The study period for efficacy evaluation is up to six cycles.
Patients taking PC-SPES must discontinue therapy for a minimum of 4 weeks. […]

Test [2] deals with ovarian, primary Fallopian, or primary peritoneal cancer. The experiment in a line: Open-label, single-arm, two-stage, multi-center efficacy study in ovarian, primary Fallopian or primary peritoneal cancer patients. As to conditions: i.v. 2.5 mg/m2, 5 minute bolus infusion weekly for three weeks, one week off; patients failed or relapsed within six months of first-line taxane/platinum therapy; study ongoing. As for the experimental part:
An open-label, single-arm, two-stage, multi-center study investigating the efficacy of 7,11-Dihydroxy-8,8,10,12,16-pentamethyl-3-[1-methyl-2-(2-methyl-thiazol-4-yl)-vinyl]-4,17-dioxa-bicyclo[14.1.0]heptadecane-5,9-dione administered intravenously at 2.5 mg/m2 as a 5 minute bolus infusion repeated every week for three weeks followed by one week off in patients who have ovarian, primary Fallopian, or primary peritoneal cancer. […] Chemotherapies other than taxane/platinum or an additional agent to this regimen will not be allowed. […] A third therapeutic agent administered as part of the taxane/platinum therapy is permitted for refractory disease if all other criteria are met.

For test [3], the system named is advanced colorectal cancer. The experiment in a line: Open-label, single-arm, two-stage multicenter efficacy study in advanced colorectal cancer, once every three weeks. As to conditions: i.v. 6.0 mg/m^2, 5 minute bolus infusion once every three weeks; colorectal cancer patients who failed fluoropyrimidine and Irinotecan or oxaliplatin; trial ongoing. As for the experimental part:
An open-label, single-arm, two-stage, multicenter study to investigate the efficacy of 7,11-Dihydroxy-8,8,10,12,16-pentamethyl-3-[1-methyl-2-(2-methyl-thiazol-4-yl)-vinyl]4,17-dioxa-bicyclo[14.1.0]heptadecane-5,9-dione administered intravenously at 6.0 mg/m^2 as a 5 minute bolus infusion repeated once every three weeks in patients with advanced colorectal cancer. 7,11-Dihydroxy-8,8,10,12,16-pentamethyl-3-[1-methyl-2-(2-methyl-thiazol-4-yl)vinyl]4,17-dioxa-bicyclo[14.1.0]heptadecane-5,9-dione is administered once every three weeks until either progression of disease or unacceptable toxicities occurs. Each three-week period is considered one cycle. Patients are evaluated for tumor response one week after the last dose of every third cycle, starting with Cycle 3. Patients may, at any time, have their dose reduced to 5.4 mg/m^2 or 4.8 mg/m^2 if in the investigator's opinion the original dose is either intolerable or unsafe for any given patient, and without such a dose reduction the patient will be forced to withdraw from the study. All dose modifications are captured on the Dose Administration Record CRF.
The study period for efficacy evaluation is up to nine cycles. […]

In test [4] the test system is advanced colorectal cancer. Put plainly: Open-label, single-arm, two-stage multicenter efficacy study in advanced colorectal cancer, weekly regimen. As to conditions: i.v. 2.5 mg/m2, 5 minute bolus infusion weekly for three weeks, one week off; colorectal cancer patients who failed fluoropyrimidine and Irinotecan or oxaliplatin; trial ongoing. As to the method: An open-label, single-arm, two-stage multicenter study to investigate the efficacy of 7,11-Dihydroxy-8,8,10,12,16-pentamethyl-3-[1-methyl-2-(2-methyl-thiazol-4-yl)vinyl]-4,17-dioxa-bicyclo[14.1.0]heptadecane-5,9-dione administered intravenously at 2.5 mg/m2 as a 5 minute bolus infusion repeated every week for three weeks followed by one week off in patients with advanced colorectal cancer. 7,11-Dihydroxy-8,8,10,12,16-pentamethyl-3-[1-methyl-2-(2-methyl-thiazol-4-yl)-vinyl-]-4,17-dioxa-bicyclo[14.1.0]heptadecane-5,9-dione is administered once every week for three weeks followed by a one-week drug holiday until either progression of disease or unacceptable toxicities occurs. Each four-week period is considered one cycle. Patients are evaluated for tumor response one week after their last dose of every other cycle, starting with Cycle 2. Patients may, at any time, have their dose reduced to 2.0 mg/m^2 if in the investigator's opinion the original dose is either intolerable or unsafe for any given patient, and without such a dose reduction the patient will be forced to withdraw from the study. All dose modifications are captured on the dose administration record CRF. The study period for efficacy evaluation is up to six cycles. […]

In another test the test system is advanced renal cancer. The experiment in a line: Open-label, single-arm, two-stage multicenter efficacy study in patients with advanced renal cancer. As to conditions: i.v. 2.5 mg/m2, 5 minute bolus infusion weekly for three weeks, one week off, trial ongoing. As for the experimental part:
An open-label, single-arm, two-stage multicenter study investigating the efficacy of 7,11-Dihydroxy-8,8,10,12,16-pentamethyl-3-[1-methyl-2-(2-methyl-thiazol-4-yl)-viny]-4,17-dioxa-bicyclo[14.1.0]heptadecane-5,9-dione administered intravenously at 2.5 mg/m2 as a 5 minute bolus infusion repeated every week for three weeks followed by one week off in patients with advanced renal cancer. 7,11-Dihydroxy-8,8,10,12,16-pentamethyl-3-[1-methyl-2-(2-methyl-thiazol-4-yl)-vinyl]-4,17-dioxa-bicyclo[14.1.0]heptadecane-5,9-dione is administered once every week for three weeks followed by a one-week drug holiday until either progression of disease or unacceptable toxicities occurs. Each four-week period is considered one cycle. Patients are evaluated for tumor response one week after their last dose of every other cycle, starting with Cycle 2. Patients may, at any time, have their dose reduced to 2.0 mg/m2 if in the investigators opinion the original dose is either intolerable or unsafe for any given patient, and without such a dose reduction the patient would be forced to withdraw from the study. All dose modifications are captured on the dose administration record CRF. The study period for efficacy evaluation is up to six cycles. The study will enroll patients with histologically confirmed transitional cell carcinoma of the kidney. […]

Take `CC(=Cc1csc(C)n1)C1CC2OC2(C)CCCC(C)C(O)C(C)C(=O)C(C)(C)C(O)CC(=O)O1` (centres unmarked) [7,11-Dihydroxy-8,8,10,12,16-pentamethyl-3-[1-methyl-2-(2-methyl-thiazol-4-yl)-vinyl]-4,17-dioxa-bicyclo[14.1.0]heptadecane-5,9-dione]: the “response of patients in the trial” value in test [1] was “Several patients show a positive response”; in test [3] it was “Several patients shown a positive response”; in test [4], “Several patients shown a positive response”. For the same molecule, the “response of patients in the study” value (in test [2]; in the test on advanced renal cancer) was “Several patients show a positive response” in each case.
